Laboratory results from PubChem BioAssay (NCI).
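Interpolation was linear, between the two tested concentrations surrounding the appropriate level; five concentrations were tested over 48 hours in 96-well plates. TGI marks complete inhibition of growth.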

Key:
Assay in all cases: NCI anticancer screen, dose series, 48 h
SK-OV-3 ovarian = tested on: SK-OV-3 ovarian
SNB-19 CNS = tested on: SNB-19 CNS
NCI/ADR-RES ovarian = tested on: NCI/ADR-RES ovarian
NCI-H522 lung = tested on: NCI-H522 lung
EKVX NSCLC = tested on: EKVX NSCLC
MDA-MB-435 = tested on: MDA-MB-435
UACC-257 melanoma = tested on: UACC-257 melanoma
NCI-H23 lung = tested on: NCI-H23 lung
A498 renal = tested on: A498 renal
TK-10 renal = tested on: TK-10 renal
MCF7 breast = tested on: MCF7 breast
SNB-75 CNS = tested on: SNB-75 CNS
SF-539 CNS = tested on: SF-539 CNS
NCI-H460 lung = tested on: NCI-H460 lung
LOX IMVI melanoma = tested on: LOX IMVI melanoma
OVCAR-8 ovarian = tested on: OVCAR-8 ovarian
MDA-MB-231 breast = tested on: MDA-MB-231 breast
MALME-3M melanoma = tested on: MALME-3M melanoma

Compound	TGI (SK-OV-3 ovarian) [µM]	TGI (SNB-19 CNS) [µM]	TGI (NCI/ADR-RES ovarian) [µM]	TGI (NCI-H522 lung) [µM]	TGI (EKVX NSCLC) [µM]	TGI (MDA-MB-435) [µM]	TGI (UACC-257 melanoma) [µM]	TGI (NCI-H23 lung) [µM]	TGI (A498 renal) [µM]	TGI (TK-10 renal) [µM]	TGI (MCF7 breast) [µM]	TGI (SNB-75 CNS) [µM]	TGI (SF-539 CNS) [µM]	TGI (NCI-H460 lung) [µM]	TGI (LOX IMVI melanoma) [µM]	TGI (OVCAR-8 ovarian) [µM]	TGI (MDA-MB-231 breast) [µM]	TGI (MALME-3M melanoma) [µM]
O=c1c2c3c(sc2nc2n1sc1nc4sc5c(c4c(=O)n12)CCCC5)CCCC3	> 100	> 100	> 71.4	31.1	27.8	> 100	> 100	79.7	> 100	> 100	50.8	> 32.8	> 100	> 100	> 100	> 100	> 69.5	
C[n+]1c(-c2ccc(/C=N\Nc3ccnc(N/N=C/c4ccc(-c5cn6ccsc6[n+]5C)cc4)n3)cc2)cn2ccsc21	> 100	> 100	> 100	> 100	50	6.94	43.9	> 100	54.8	> 100	> 100	92.1	70.3	> 100		> 100	67.3	85.4
CC(C)(C)OC(=O)NC(Cc1ccc(OC(C)(C)C)cc1)C(=O)N[C@H]1CC[C@H](C(=O)O)C1 (stereo partly specified)	> 100	> 100	> 100	> 100	> 100	> 100	> 100	> 100	> 100	> 100	> 100	> 100	> 100	> 100	> 100	> 100	> 100	
O=C(c1ccc(Cl)c(Cl)c1)N(C(=S)OC12CC3CC(CC(C3)C1)C2)c1ccccc1	> 100	> 100	> 100	41.7	72.5	> 100	> 100	> 100	> 100	> 100	> 100	> 100	> 100	> 100		> 100	> 100	> 100
O=[N+]([O-])c1ccccc1S(=O)(=O)c1cccc2c1NCCC2	> 100	> 100	> 100		> 100	> 100	63.2		> 100	> 100	> 100	> 100	> 100	> 100	> 100	> 100	> 100	> 100
COC(=O)C1=C(N)C2=C(N)Oc3ccccc3C2CC1=C(C#N)C#N (stereo unspecified)	> 100	70.4	47.5	40.7	84.4	> 100	> 100	54	68.6	52	93.1	68.6	71.2		44.2	55.7	59.4	58.1
c1ccc(CN2C3C4N(Cc5ccccc5)C2C2N(Cc5ccccc5)C(C(N2Cc2ccccc2)N4Cc2ccccc2)N3Cc2ccccc2)cc1	> 100		> 100	> 100	> 100	> 100	> 100	> 100	> 100	> 100	> 100	> 100	> 100		> 100	> 100	> 100	
